Results from paper PMC5218480 (PLoS ONE, 2017).

Test system: MV-4-11 cells
Assay: Gene expression microarray analysis (Affymetrix PrimeView) and GSEA
Type: cell-based, human
Parameters: RFU PODN (11730768_x_at) / Fold change /veh PODN (11730768_x_at) / RFU LINC00158 (11744669_a_at) / Fold change /veh LINC00158 (11744669_a_at) / RFU DUSP10 (11751237_a_at) / Fold change /veh DUSP10 (11751237_a_at) / RFU ID3 (11757404_x_at) / Fold change /veh ID3 (11757404_x_at) / RFU PLEKHG5 (11737974_s_at) / Fold change /veh PLEKHG5 (11737974_s_at) / RFU LRRC4B (11730491_at) / Fold change /veh LRRC4B (11730491_at) / RFU GIMAP4 (11747438_a_at) / Fold change /veh GIMAP4 (11747438_a_at) / RFU KRT8 (11758183_x_at) / Fold change /veh KRT8 (11758183_x_at) / RFU CNN1 (11734310_a_at) / Fold change /veh CNN1 (11734310_a_at) / RFU VPS37D (11726825_at) / Fold change /veh VPS37D (11726825_at) / RFU C10orf10 (11716522_x_at) / Fold change /veh C10orf10 (11716522_x_at) / RFU KIR2DL2 /// KIR2DL4 /// KIR2DL5A /// KIR2DL5B /// KIR2DS1 /// KIR2DS2 /// KIR2DS3 /// KIR2DS4 /// KIR3DL3 /// KIR3DL3 /// KIR3DS1 (11738374_at) / Fold change /veh KIR2DL2 /// KIR2DL4 /// KIR2DL5A /// KIR2DL5B /// KIR2DS1 /// KIR2DS2 /// KIR2DS3 /// KIR2DS4 /// KIR3DL3 /// KIR3DL3 /// KIR3DS1 (11738374_at) / RFU C1QL1 (11718748_at) / Fold change /veh C1QL1 (11718748_at) / RFU TMPRSS4 (11747572_a_at) / Fold change /veh TMPRSS4 (11747572_a_at) / RFU HAMP (11756126_x_at) / Fold change /veh HAMP (11756126_x_at) / RFU RNFT2 (11725882_a_at) / Fold change /veh RNFT2 (11725882_a_at) / RFU NR4A2 (11747474_a_at) / Fold change /veh NR4A2 (11747474_a_at) / RFU ABCC12 (11746883_a_at) / Fold change /veh ABCC12 (11746883_a_at) / RFU TMEM136 (11760407_x_at) / Fold change /veh TMEM136 (11760407_x_at) / RFU CLDN22 /// WWC2 (11732394_at) / Fold change /veh CLDN22 /// WWC2 (11732394_at) / RFU HLA-DPB1 (11760878_x_at) / Fold change /veh HLA-DPB1 (11760878_x_at) / RFU SPINT1 (11716480_a_at) / Fold change /veh SPINT1 (11716480_a_at) / RFU GAP43 (11754022_s_at) / Fold change /veh GAP43 (11754022_s_at) / RFU A4GNT (11735810_at) / Fold change /veh A4GNT (11735810_at) / RFU PRB3 (11715151_x_at) / Fold change /veh PRB3 (11715151_x_at) / RFU TUBB4B (11761932_at) / Fold change /veh TUBB4B (11761932_at) / RFU CAPN14 (11732068_a_at) / Fold change /veh CAPN14 (11732068_a_at) / RFU TMCC2 (11721928_a_at) / Fold change /veh TMCC2 (11721928_a_at) / RFU IRGQ (11745062_a_at) / Fold change /veh IRGQ (11745062_a_at) / RFU FAM174B (11720279_a_at) / Fold change /veh FAM174B (11720279_a_at) / RFU TMPRSS4 (11748680_a_at) / Fold change /veh TMPRSS4 (11748680_a_at) / RFU FAM212B (11763350_a_at) / Fold change /veh FAM212B (11763350_a_at) / RFU PLEKHG5 (11743358_a_at) / Fold change /veh PLEKHG5 (11743358_a_at) / RFU ZSCAN30 (11745921_a_at) / Fold change /veh ZSCAN30 (11745921_a_at) / RFU CMKLR1 (11741424_a_at) / Fold change /veh CMKLR1 (11741424_a_at) / RFU LOC101060620 /// MAPK8IP1 (11723275_at) / Fold change /veh LOC101060620 /// MAPK8IP1 (11723275_at) / RFU SPTSSB (11747773_x_at) / Fold change /veh SPTSSB (11747773_x_at) / RFU PRSS12 (11739890_at) / Fold change /veh PRSS12 (11739890_at) / RFU BIN1 (11741810_x_at) / Fold change /veh BIN1 (11741810_x_at) / RFU WNT11 (11732464_a_at) / Fold change /veh WNT11 (11732464_a_at) / RFU C10orf10 (11716521_a_at) / Fold change /veh C10orf10 (11716521_a_at) / RFU C5orf56 (11738089_at) / Fold change /veh C5orf56 (11738089_at) / RFU CYB561 (11721691_x_at) / Fold change /veh CYB561 (11721691_x_at) / RFU ANKRD19P (11752326_a_at) / Fold change /veh ANKRD19P (11752326_a_at) / RFU OR2T12 /// OR2T33 /// OR2T8 (11738714_s_at) / Fold change /veh OR2T12 /// OR2T33 /// OR2T8 (11738714_s_at) / RFU VCAN (11748164_a_at) / Fold change /veh VCAN (11748164_a_at) / RFU JSRP1 (11732532_at) / Fold change /veh JSRP1 (11732532_at) / RFU KRTAP10-11 (11738290_x_at) / Fold change /veh KRTAP10-11 (11738290_x_at) / RFU MYO3A (11730013_a_at) / Fold change /veh MYO3A (11730013_a_at) / RFU EBF3 (11725865_a_at) / Fold change /veh EBF3 (11725865_a_at) / RFU CAMK2N1 (11719241_x_at) / Fold change /veh CAMK2N1 (11719241_x_at) / RFU C5orf56 (11738088_a_at) / Fold change /veh C5orf56 (11738088_a_at) / RFU OLFML3 (11715873_a_at) / Fold change /veh OLFML3 (11715873_a_at) / RFU LOC100653217 /// NTM (11731650_a_at) / Fold change /veh LOC100653217 /// NTM (11731650_a_at) / RFU MAPK11 (11762145_a_at) / Fold change /veh MAPK11 (11762145_a_at) / RFU FIZ1 (11724087_x_at) / Fold change /veh FIZ1 (11724087_x_at) / RFU OASL (11726364_x_at) / Fold change /veh OASL (11726364_x_at) / RFU SOX15 (11748057_x_at) / Fold change /veh SOX15 (11748057_x_at) / RFU CD79A (11719716_a_at) / Fold change /veh CD79A (11719716_a_at) / RFU HIST1H1D (11736915_at) / Fold change /veh HIST1H1D (11736915_at) / RFU CASKIN2 (11723855_a_at) / Fold change /veh CASKIN2 (11723855_a_at) / RFU LOC730098 (11760151_x_at) / Fold change /veh LOC730098 (11760151_x_at) / RFU OR4N2 (11742367_at) / Fold change /veh OR4N2 (11742367_at) / RFU PRRT2 (11749266_a_at) / Fold change /veh PRRT2 (11749266_a_at) / RFU SNX32 (11753110_a_at) / Fold change /veh SNX32 (11753110_a_at) / RFU CDHR5 (11726645_a_at) / Fold change /veh CDHR5 (11726645_a_at) / RFU RCAN1 (11760418_a_at) / Fold change /veh RCAN1 (11760418_a_at) / RFU FAM167A (11723789_a_at) / Fold change /veh FAM167A (11723789_a_at) / RFU FAM26E (11764081_at) / Fold change /veh FAM26E (11764081_at) / RFU ISYNA1 (11749810_s_at) / Fold change /veh ISYNA1 (11749810_s_at) / RFU ACY1 (11761880_at) / Fold change /veh ACY1 (11761880_at) / RFU 11764098_at / Fold change /veh 11764098_at / RFU SAMD14 (11745864_x_at) / Fold change /veh SAMD14 (11745864_x_at) / RFU NPB (11741838_a_at) / Fold change /veh NPB (11741838_a_at) / RFU TMPRSS6 (11731388_a_at) / Fold change /veh TMPRSS6 (11731388_a_at) / RFU KRTAP10-2 (11738614_at) / Fold change /veh KRTAP10-2 (11738614_at) / RFU ARHGAP8 /// PRR5-ARHGAP8 (11727945_x_at) / Fold change /veh ARHGAP8 /// PRR5-ARHGAP8 (11727945_x_at) / RFU KRTAP5-7 /// NADSYN1 (11734609_at) / Fold change /veh KRTAP5-7 /// NADSYN1 (11734609_at) / RFU RASL12 (11751679_a_at) / Fold change /veh RASL12 (11751679_a_at) / RFU CDKN2B (11736163_a_at) / Fold change /veh CDKN2B (11736163_a_at) / RFU PRF1 (11729649_at) / Fold change /veh PRF1 (11729649_at) / RFU, ZNF638 /// ZNF638-IT1 / Fold change vs veh, ZNF638 /// ZNF638-IT1 / RFU, PANK3 / Fold change vs veh, PANK3 / RFU, SH3YL1 / Fold change vs veh, SH3YL1 / RFU, ZEB2 / Fold change vs veh, ZEB2 / RFU, NRIP1 / Fold change vs veh, NRIP1 / RFU, PTTG1IP / Fold change vs veh, PTTG1IP / RFU, CAPN2 / Fold change vs veh, CAPN2 / RFU, MED14 / Fold change vs veh, MED14 / RFU, SNORA58 / Fold change vs veh, SNORA58 / RFU, C1orf63 / Fold change vs veh, C1orf63 / RFU, LRRFIP1 / Fold change vs veh, LRRFIP1 / RFU, NDUFAF7 / Fold change vs veh, NDUFAF7 / RFU, SLC12A2 / Fold change vs veh, SLC12A2 / RFU, IBTK / Fold change vs veh, IBTK / RFU, ESF1 / Fold change vs veh, ESF1 / Fold change vs veh, TMEM50B / RFU, TAOK1 / Fold change vs veh, TAOK1 / RFU, ACBD3 / Fold change vs veh, ACBD3 / RFU, TMA16 / Fold change vs veh, TMA16 / RFU, RWDD3 / Fold change vs veh, RWDD3 / RFU, BCAT1 / Fold change vs veh, BCAT1 / RFU, EDEM3 / Fold change vs veh, EDEM3 / RFU, TMEM33 / Fold change vs veh, TMEM33 / RFU, WDR75 / Fold change vs veh, WDR75 / RFU, AHCTF1 / Fold change vs veh, AHCTF1 / RFU, TFRC / Fold change vs veh, TFRC / RFU, ZDHHC17 / Fold change vs veh, ZDHHC17 / RFU, NOM1 / Fold change vs veh, NOM1 / RFU, ARL8B / Fold change vs veh, ARL8B / RFU, ZBTB11 / Fold change vs veh, ZBTB11 / RFU, TAMM41 / Fold change vs veh, TAMM41 / RFU, KIAA1704 /// LOC100996395 / Fold change vs veh, KIAA1704 /// LOC100996395 / RFU, ING1 / Fold change vs veh, ING1 / RFU, TRMT61B / Fold change vs veh, TRMT61B / RFU, FUBP3 / Fold change vs veh, FUBP3 / RFU, TP53 / Fold change vs veh, TP53 / RFU, TNKS2 / Fold change vs veh, TNKS2 / RFU, ZFP14 / Fold change vs veh, ZFP14 / RFU, ACTR2 / Fold change vs veh, ACTR2 / RFU, PPP3R1 / Fold change vs veh, PPP3R1 / RFU, PIK3R1 / Fold change vs veh, PIK3R1 / RFU, HNRNPA1 / Fold change vs veh, HNRNPA1 / RFU, RNF170 / Fold change vs veh, RNF170 / RFU, ZNF28 / Fold change vs veh, ZNF28 / RFU, RNGTT / Fold change vs veh, RNGTT / RFU, OGT / Fold change vs veh, OGT / RFU, BRD1 / Fold change vs veh, BRD1 / RFU, MARS / Fold change vs veh, MARS / RFU, ZNF655 / Fold change vs veh, ZNF655 / RFU, FAHD1 / Fold change vs veh, FAHD1 / RFU, BDP1 / Fold change vs veh, BDP1 / RFU, LRRCC1 / Fold change vs veh, LRRCC1 / RFU, ARID1A / Fold change vs veh, ARID1A / RFU, ZNF146 / Fold change vs veh, ZNF146 / RFU, ZNF330 / Fold change vs veh, ZNF330 / RFU, GPN3 / Fold change vs veh, GPN3 / RFU, C9orf123 / Fold change vs veh, C9orf123 / RFU, N4BP2L2 / Fold change vs veh, N4BP2L2 / RFU, ARFIP1 / Fold change vs veh, ARFIP1 / RFU, FAM179B / Fold change vs veh, FAM179B / RFU, BCL10 / Fold change vs veh, BCL10 / RFU, UHRF1BP1L / Fold change vs veh, UHRF1BP1L / RFU, BET1 / Fold change vs veh, BET1 / RFU, CNOT2 / Fold change vs veh, CNOT2 / RFU, ZNF268 / Fold change vs veh, ZNF268 / Fold change vs veh, ZNF507 / RFU, DGCR2 / Fold change vs veh, DGCR2 / RFU, WDSUB1 / Fold change vs veh, WDSUB1 / Fold change vs veh, HSP90B1 /// MIR3652 / RFU, ADSS / Fold change vs veh, ADSS / RFU, GK / Fold change vs veh, GK / RFU, ZNF148 / Fold change vs veh, ZNF148 / RFU, TAF9 / Fold change vs veh, TAF9 / RFU, SLC1A5 / Fold change vs veh, SLC1A5 / RFU, SLMO2 / Fold change vs veh, SLMO2 / RFU, ABCC4 / Fold change vs veh, ABCC4 / RFU, LOC101060439 /// RAP1B / Fold change vs veh, LOC101060439 /// RAP1B / RFU, RFX7 / Fold change vs veh, RFX7 / RFU, GTPBP10 / Fold change vs veh, GTPBP10 / RFU, CNEP1R1 / Fold change vs veh, CNEP1R1 / RFU, BIVM-ERCC5 /// ERCC5 / Fold change vs veh, BIVM-ERCC5 /// ERCC5 / RFU, ILF3 / Fold change vs veh, ILF3 / RFU 11762660_at / Fold change /veh 11762660_at / RFU VCAN (11757783_s_at) / Fold change /veh VCAN (11757783_s_at) / RFU DDX43 (11728927_at) / Fold change /veh DDX43 (11728927_at) / RFU KRT8 (11758188_x_at) / Fold change /veh KRT8 (11758188_x_at) / RFU NKD1 (11759106_at) / Fold change /veh NKD1 (11759106_at) / RFU SRD5A1 (11742802_a_at) / Fold change /veh SRD5A1 (11742802_a_at) / RFU TPSAB1 /// TPSB2 (11721975_s_at) / Fold change /veh TPSAB1 /// TPSB2 (11721975_s_at) / RFU GSTM3 (11746129_a_at) / Fold change /veh GSTM3 (11746129_a_at) / RFU IL23R (11737362_x_at) / Fold change /veh IL23R (11737362_x_at) / RFU TMEM51 (11727254_a_at) / Fold change /veh TMEM51 (11727254_a_at) / RFU PIWIL2 (11732686_x_at) / Fold change /veh PIWIL2 (11732686_x_at) / RFU ORM1 (11744905_x_at) / Fold change /veh ORM1 (11744905_x_at) / RFU CCDC152 (11743942_at) / Fold change /veh CCDC152 (11743942_at) / RFU ECM1 (11717891_a_at) / Fold change /veh ECM1 (11717891_a_at) / RFU IL23R (11748794_a_at) / Fold change /veh IL23R (11748794_a_at) / RFU TNFAIP8L3 (11732012_x_at) / Fold change /veh TNFAIP8L3 (11732012_x_at) / RFU MBOAT4 (11741988_at) / Fold change /veh MBOAT4 (11741988_at) / RFU 11764193_at / Fold change /veh 11764193_at / RFU TMEM53 (11763286_at) / Fold change /veh TMEM53 (11763286_at) / RFU MAGEB2 (11727129_at) / Fold change /veh MAGEB2 (11727129_at) / RFU TMEM200A (11744735_a_at) / Fold change /veh TMEM200A (11744735_a_at) / RFU CCDC152 (11751479_a_at) / Fold change /veh CCDC152 (11751479_a_at) / RFU FAM211A (11726209_a_at) / Fold change /veh FAM211A (11726209_a_at) / RFU RGS16 (11746705_a_at) / Fold change /veh RGS16 (11746705_a_at) / RFU VCAN (11755009_s_at) / Fold change /veh VCAN (11755009_s_at) / RFU RHOB (11743442_s_at) / Fold change /veh RHOB (11743442_s_at) / RFU RGS16 (11720943_a_at) / Fold change /veh RGS16 (11720943_a_at) / RFU RGS16 (11720944_at) / Fold change /veh RGS16 (11720944_at) / RFU, VPS4B / Fold change vs veh, VPS4B / RFU, CREB1 / Fold change vs veh, CREB1 / RFU, DNAJC13 / Fold change vs veh, DNAJC13 / RFU, GNAQ / Fold change vs veh, GNAQ / RFU, CDK5R1 / Fold change vs veh, CDK5R1 / RFU, ZRANB3 / Fold change vs veh, ZRANB3 / RFU, CUL4A / Fold change vs veh, CUL4A / RFU, CCNY / Fold change vs veh, CCNY / RFU, UFL1 / Fold change vs veh, UFL1 / RFU, COG3 / Fold change vs veh, COG3 / RFU, DIAPH2 / Fold change vs veh, DIAPH2 / RFU, SKA2 / Fold change vs veh, SKA2 / RFU, AFF3 / Fold change vs veh, AFF3 / RFU, LMF1 / Fold change vs veh, LMF1 / RFU, IPO11 / Fold change vs veh, IPO11 / RFU, DFFB / Fold change vs veh, DFFB / RFU, FOXP1 / Fold change vs veh, FOXP1 / RFU, CARD8 / Fold change vs veh, CARD8 / RFU, STRN3 / Fold change vs veh, STRN3 / RFU, ADK / Fold change vs veh, ADK / RFU, RASSF2 / Fold change vs veh, RASSF2 / RFU, WIPF1 / Fold change vs veh, WIPF1 / RFU, LARP1B / Fold change vs veh, LARP1B / RFU, RASA1 / Fold change vs veh, RASA1 / RFU, RB1 / Fold change vs veh, RB1 / RFU, PPFIA1 / Fold change vs veh, PPFIA1 / RFU, MAT2A / Fold change vs veh, MAT2A / RFU, CCT5 / Fold change vs veh, CCT5 / RFU, WDR92 / Fold change vs veh, WDR92 / RFU, CUX1 / Fold change vs veh, CUX1 / RFU, TTC7A / Fold change vs veh, TTC7A / RFU, TMEM135 / Fold change vs veh, TMEM135 / RFU, DEPTOR / Fold change vs veh, DEPTOR / RFU, CPM / Fold change vs veh, CPM / RFU, DNAJB6 / Fold change vs veh, DNAJB6 / RFU, CACNA2D3 / Fold change vs veh, CACNA2D3 / RFU, DTX4 / Fold change vs veh, DTX4 / RFU, TFCP2 / Fold change vs veh, TFCP2 / RFU, GMCL1 /// GMCL1P1 / Fold change vs veh, GMCL1 /// GMCL1P1 / RFU, AEBP2 / Fold change vs veh, AEBP2 / RFU, SNHG1 /// SNORD22 /// SNORD25 /// SNORD26 /// SNORD27 /// SNORD28 /// SNORD29 /// SNORD31 / Fold change vs veh, SNHG1 /// SNORD22 /// SNORD25 /// SNORD26 /// SNORD27 /// SNORD28 /// SNORD29 /// SNORD31 / Fold change (Aza/veh), C12orf56 (ProbeSet 11735607_a_at) / Fold change (ACY-1035/veh), C12orf56 (ProbeSet 11735607_a_at) / Fold change (Aza/veh), FGFR1OP (ProbeSet 11751329_s_at) / Fold change (ACY-1035/veh), FGFR1OP (ProbeSet 11751329_s_at) / Fold change (Aza/veh), VPS36 (ProbeSet 11739960_a_at) / Fold change (ACY-1035/veh), VPS36 (ProbeSet 11739960_a_at) / RFU SYPL1 (11715823_x_at) / Fold change /veh SYPL1 (11715823_x_at) / RFU IGFBP7 (11715501_s_at) / Fold change /veh IGFBP7 (11715501_s_at) / RFU REEP3 (11722064_at) / Fold change /veh REEP3 (11722064_at) / RFU IGLL1 (11728026_x_at) / Fold change /veh IGLL1 (11728026_x_at): dose or concentration left out as unconfirmed
Details: MV-4-11 cells, 48 hours

Nc1ncn([C@@H]2O[C@H](CO)[C@@H](O)[C@H]2O)c(=O)n1 [azacitidine]
Fold change /veh DUSP10 (11751237_a_at): 1.16
